From patent US11464787B2, “Composition comprising oleanolic acid acetate as active ingredient for preventing, alleviating, or treating renal toxicity induced by medicine” (Korea Research Institute of Bioscience and Biotechnology, priority 2016, dated 2022)

Assays:
peritoneal macrophages = experiment: MTT assay cytotoxicity in mouse peritoneal macrophages; type: cell-based; settings: for cell survival rate: maximum concentration of 1000 μg/ml, 24 hours
Procedure: For the isolation of peritoneal macrophage of mice, 3 ml of 3% thioglycollate medium was administered intraperitoneally to 5-6 week old ICR male mice (Oriental Bio, Seoul, Korea). After 3 days, 6 ml to 7 ml of PBS was administered intraperitoneally, followed by a massage of peritoneal cavity to collect the peritoneal fluid. The collected peritoneal fluid was centrifuged and suspended in RPMI (10% FBS, 1% antibiotics), transferred to a plate, and stabilized at 37° C. for 2 hours.
(§1) The absorbance thereof was measured at 570 nm.

spleen cells = experiment: MTT assay cytotoxicity in mouse spleen cells; type: cell-based; settings: all concentrations (100, 300, and 600 μg/ml)
Procedure: For the isolation of mouse spleen cells, 5-6 week old ICR male mice (Oriental Bio, Seoul, Korea) were sacrificed with CO2 and then their spleen was aseptically extracted. The spleen was ground with a filter to separate single spleen cells, centrifuged using centrifugation, and erythrocytes were dissolved using ficoll. Cells from which erythrocytes had been removed were stabilized with RPMI (10% FBS, 1% antibiotics) at 37° C. for 2 hours.
as §1

[1] = system: cisplatin-induced nephrotoxicity; experiment: Cisplatin-induced nephrotoxicity animal model: body weight, kidney weight, death rate, BUN; type: in vivo, C57BL/6 male mice
Procedure: (§2) For the experiment, the mice were kept under constant temperature (23±3° C.), humidity (55±15%) and light irradiation (7:00 to 19:00). After the purchase, the mice were stabilized in the SPF animal breeding room for 1 week and used in the experiment.
After the mouse sacrifice, the body weight was measured, the kidney was isolated, the blood was collected from the heart, and the blood urea nitrogen (BUN), a biochemical indicator related to nephrotoxicity, was measured. The collected mouse blood was centrifuged at 3000 rpm and 4° C. for 15 minutes using a centrifuge to separate the only serum, and the BUN was measured using an automatic analyzer (Fuji Dry-Chem NX500i, Tokyo, Japan).
The death rate was expressed as a percentage by dividing the number of mice killed in each group by the total number of mice.

TNF-α [2] = experiment: Blood TNF-α by ELISA in cisplatin-induced nephrotoxicity model; type: in vivo, C57BL/6 male mice; settings: cisplatin and oleanolic acid acetate (50 mg/Kg)-treated group, serum ELISA
Procedure: as §2
(§3) In order to measure inflammatory cytokines in the blood (TNF-α and IL-6), serum was separated and used from blood, and TNF-α and IL-6 were measured using a mouse ELISA kit (R&D system, Minneapolis, Minn., USA). ELISA color development was measured using a Varioskan™ LUX multimode microplate reader (Thermofisher, Sunnyvale, Calif., USA) at a wavelength of 450 nm.

IL-6 [3] = experiment: Blood IL-6 by ELISA in cisplatin-induced nephrotoxicity model; type: in vivo, C57BL/6 male mice; settings: cisplatin and oleanolic acid acetate (50 mg/Kg)-treated group, serum ELISA
Procedure: as §2, §3

TNF-α [4] = experiment: Kidney tissue TNF-α mRNA expression by real-time PCR in cisplatin-induced nephrotoxicity model; type: in vivo, C57BL/6 male mice; settings: cisplatin and oleanolic acid acetate (50 mg/Kg)-treated group
Procedure: as §2
(§4) After the mouse sacrifice, kidneys were separated and homogenized by adding Trizol reagent (Invitrogen, Carlsbad, Calif., USA). To this, chloroform was added to extract RNA, and isopropanol was added to precipitate. After the RNA precipitate was washed with 75% ethanol, the RNA concentration and purity were measured with a 2100 Bioanalyzer System (Agilent Technologies, Santa Clara, Calif., USA), and Taqman reverse transcription reagents kit (Applied Biosystems, Foster City) was used to synthesize cDNA. The expression level of inflammatory factors was measured by real-time PCR using SYBR Green PCR master mix kit (Applied Biosystem, Foster City, Calif., USA).
(§5) In order to examine the expression levels of TNF-α and IL-6, inflammatory cytokines, COX-2, a prostaglandin E2 (PGE2) synthase involved in increasing the vascular permeability of the inflammatory response, and MCP-1, an inflammatory chemokine, Real-time PCR was performed on each gene.

IL-6 [5] = experiment: Kidney tissue IL-6 mRNA expression by real-time PCR in cisplatin-induced nephrotoxicity model; type: in vivo, C57BL/6 male mice; settings: cisplatin and oleanolic acid acetate (50 mg/Kg)-treated group
Procedure: as §2, §4, §5

COX-2 = experiment: Kidney tissue COX-2 mRNA expression by real-time PCR in cisplatin-induced nephrotoxicity model; type: in vivo, C57BL/6 male mice; settings: cisplatin and oleanolic acid acetate (50 mg/Kg)-treated group
Procedure: as §2, §4, §5

MCP-1 = experiment: Kidney tissue MCP-1 mRNA expression by real-time PCR in cisplatin-induced nephrotoxicity model; type: in vivo, C57BL/6 male mice; settings: cisplatin and oleanolic acid acetate (50 mg/Kg)-treated group
Procedure: as §2, §4, §5

HEK-293T cells = experiment: MTT assay cytotoxicity in HEK-293T human embryonic kidney cells; settings: for cell survival rate: HEK-293T, highest concentration of 1000 μg/ml, 24 hours
Procedure: HEK-293T cells, human embryonic kidney cells, were cultured in Dulbecco's modified eagle medium (Cat No. 12800-017, Gibco, USA) supplemented with heat-inactivated 10% FBS.
The survival rate of cultured cells was measured by MTT reduction method. As an MTT solution, formazan was formed by mitochondrial dehydrogenases in living cells to confirm cell viability. […] After 24 hours, 20 μl of MTT solution was added to each well, followed by further culturing for 2 hours. Then, the culture solution was removed, and 100 μl of dimethylsulfoxide was added thereto. The absorbance thereof was measured at 570 nm.

Compound | cytotoxicity (in words) (peritoneal macrophages) | cell survival rate (peritoneal macrophages) [%] | cell survival rate compared with oleanolic acid (in words) (spleen cells) | death rate ([1]; cisplatin 20 mg/kg i.p. and oleanolic acid acetate 50 mg/Kg orally, mice) [%] | BUN value ([1]; cisplatin and oleanolic acid acetate (50 mg/Kg oral)-treated group, serum, day 5, vs cisplatin group) | TNF-α in the blood (TNF-α [2]) | IL-6 in the blood (IL-6 [3]) | amount of mRNA expression of TNF-α (TNF-α [4]) | amount of mRNA expression of IL-6 (IL-6 [5]) | amount of mRNA expression of COX-2 (COX-2) | amount of mRNA expression of MCP-1 (MCP-1) | cell survival rate (HEK-293T cells) [%] | cytotoxicity (in words) (HEK-293T cells; human kidney cell lines, compared with oleanolic acid)
CC(=O)O[C@H]1CC[C@@]2(C)C(CC[C@]3(C)[C@@H]2CC=C2[C@H]4CC(C)(C)CC[C@]4(C(=O)O)CC[C@]23C)C1(C)C (stereo partly drawn) [oleanolic acid acetate, 4aS,6aR,6aS,6bR,8aR,10S,12aR,14bS-10-hydroxy-2,2,6a,6b,9,9,12a-heptamethyl-1,3,4,5,6,6a,7,8,8a,10,11,12,13,14b-tetradecahydropicene-4a-carboxylic acid acetate] | almost no cytotoxicity | 81 | higher cell survival rate than that of oleanolic acid | 44 | decreased | decreased | decreased | decreased | decreased | decreased | decreased | 43 | concentration-dependently less than that of oleanolic acid
CC1(C)CC[C@]2(C(=O)O)CC[C@]3(C)C(=CC[C@@H]4[C@@]5(C)CC[C@H](O)C(C)(C)[C@@H]5CC[C@]43C)[C@@H]2C1 [oleanolic acid] | cytotoxicity in a concentration-dependent manner | 41 |  |  |  |  |  |  |  |  |  | 27 | 
